Measured values reported in US20260022103A1, “PRAMIPEXOLE XINAFOATE AND SUSTAINED-RELEASE PHARMACEUTICAL FORMULATION THEREOF” (JEWIM PHARMACEUTICAL (SHANDONG) CO., LTD., priority 2022, published 2026).
Where a name gives a salt, the structure may show the parent alone. Read-outs that look alike come from different tables or passages of the source.

Legend:
dopamine D2 receptor = dopamine D2 receptor (Homo sapiens, UniProt P14416); conditions: cited from earlier work
[1] = for Saturation concentration: 48 h
Procedure: The concentrations of the pramipexole salts in different media for saturation at 48 h were determined by a shake flask dissolution method at 37° C.

[2] = Pharmacokinetics of different pramipexole salt suspension injections in rats; type: in vivo; conditions: subcutaneous suspension injection
Procedure: 18 adult rats, including 12 males and 6 females (non-perilactation period), were selected and divided into three groups with 6 rats each group (a ratio of males to females of 2:1), and subcutaneously administered with 2 ml of the suspension injections of Examples 3-5 respectively. The main pharmacokinetic parameters of each of test animals were determined: the time to peak, the maximal blood drug level and AUC0-t.

[3] = Phosphate buffer at pH 6.8, 37° C.
[4] = Phosphate buffer at pH 7.4, 37° C.

dopamine D2 receptor, sequence (P14416 whole entry, species assumed): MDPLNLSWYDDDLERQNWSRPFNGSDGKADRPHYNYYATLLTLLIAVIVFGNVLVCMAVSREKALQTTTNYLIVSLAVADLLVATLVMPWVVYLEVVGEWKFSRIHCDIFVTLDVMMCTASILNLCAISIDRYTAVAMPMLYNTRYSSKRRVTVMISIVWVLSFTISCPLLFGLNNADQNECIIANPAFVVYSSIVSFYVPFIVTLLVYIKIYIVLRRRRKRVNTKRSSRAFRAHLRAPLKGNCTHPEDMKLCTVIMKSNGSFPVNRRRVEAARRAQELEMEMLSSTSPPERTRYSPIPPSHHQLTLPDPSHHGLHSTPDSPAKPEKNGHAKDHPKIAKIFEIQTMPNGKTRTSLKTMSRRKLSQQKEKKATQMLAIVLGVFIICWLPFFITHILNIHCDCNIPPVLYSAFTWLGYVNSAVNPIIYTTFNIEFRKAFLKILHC

Saturation concentration ([1]; 0.9% NaCl, 37° C.) [µg/mL]	Saturation concentration [1, 3] [µg/mL]	Saturation concentration [1, 4] [µg/mL]	Saturation concentration ([1]; Water for injection, 37° C.) [µg/mL]	Compound	further results
1.05	2.64	4.66	0.78	CCCN[C@H]1CCc2nc(N)sc2C1 [pramipexole xinafoate]	Duration of sustained release [2]: up to 35 days; Solubility compared with the other salts ([1]; summary of Table 1): significantly decreased
227.63	275.34	345.29	189.25	pramipexole pamoate	

Further lines, the compound ahead of its results:

Compound	Saturation concentration ([1]; 0.9% NaCl, 37° C.) [µg/mL]	Saturation concentration [1, 3] [µg/mL]	Saturation concentration [1, 4] [µg/mL]	Saturation concentration ([1]; Water for injection, 37° C.) [µg/mL]	further results
CCCN[C@H]1CCc2nc(N)sc2C1 [S(−) isomer, (S)-(−)-2-amino-6-(propylamino)-4,5,6,7-tetrahydrobenzothiazole]					Affinity to dopamine D2 receptor relative to the R(+) isomer (dopamine D2 receptor; ratio versus R(+) isomer): 8-10 times; Affinity to dopamine D2 receptor relative to the racemate (dopamine D2 receptor; ratio versus racemate): 2 times
CCCN[C@H]1CCc2nc(N)sc2C1.O=C(O)c1ccccc1 [pramipexole benzoate]	325.91	392.11	427.37	292.72	
CCCN[C@H]1CCc2nc(N)sc2C1 [pramipexole hydrochloride, Pramipexole hydrochloride]					Saturation concentration ([1]; 0.9% NaCl, 37° C., hydrochloride): 1207.41 µg/mL; Saturation concentration ([1]; Phosphate buffer at pH 6.8, 37° C., hydrochloride): 1249.45 µg/mL; Saturation concentration ([1]; Phosphate buffer at pH 7.4, 37° C., hydrochloride): 1363.53 µg/mL; Saturation concentration ([1]; Water for injection, 37° C., hydrochloride): 1187.36 µg/mL
